Assay results reported in patent publication US20100285039A1, “B7-H1 (CD274) Antagonists Induce Apoptosis of Tumor Cells” (THE JOHNS HOPKINS UNIVERSITY, priority 2008, published 2010).

Columns and labels:
B7-H1/P815 cells = experiment: Staurosporine induced apoptosis (annexin V/PI); type: cell-based, mouse; conditions: Staurosporine (STP 1 μM), control Ig-treated cells
Description: PD-1Ig fusion protein or control IgG were coated on 96 well-plates for 18 hr at 4° C. Full length B7-H1/P815 cells were cultured with STP (1 μM) in the well coated PD-1Ig or control IgG. Cells were harvested after 24 hr and stained with annexin V (BD PharMingen) at 5 μl/test, propidium iodide (PI) (Sigma-Aldrich) at 5 μg/ml for 1 hour and monoclonal antibodies against H-2D^d. Apoptosis was calculated as the percentage of annexin V+PI-cells gated in the H-2D^d+ fractions.
B7-H1 was assayed to determine whether it confers resistance to drugs which induce apoptosis of tumor cells. […] Staurosporine is often used as a general method for inducing apoptosis of tumor cells.

[1] = target: wild type murine B7-H1 expressed on P815 cells (B7-H1/P815) (mouse) (UniProt Q9EP73); experiment: cell-based or functional assay
Chain of wild type murine B7-H1 expressed on P815 cells (B7-H1/P815) (mouse) (Q9EP73 19-290): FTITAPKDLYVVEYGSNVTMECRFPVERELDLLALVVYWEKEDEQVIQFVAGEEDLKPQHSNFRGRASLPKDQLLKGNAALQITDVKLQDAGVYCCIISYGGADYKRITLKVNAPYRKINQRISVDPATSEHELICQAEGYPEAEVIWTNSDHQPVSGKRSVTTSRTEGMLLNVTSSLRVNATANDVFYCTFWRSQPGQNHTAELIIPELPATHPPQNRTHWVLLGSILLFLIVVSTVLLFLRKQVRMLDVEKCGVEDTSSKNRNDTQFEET

| cytolytic activity of CTLs against B7-H1/P815 targets [1] [%] | Compound | apoptosis of B7-H1/P815 cells (B7-H1/P815 cells) [%] |
| --- | --- | --- |
|  | CN[C@@H]1C[C@H]2O[C@@](C)([C@@H]1OC)n1c3ccccc3c3c4c(c5c6ccccc6n2c5c31)C(=O)NC4 [Staurosporine] | 74.9 |
| 50 | wild type murine PD-1 expressed on transduced PD-1KO 2C CTLs (PD-1/PD-1^02C) (from UniProt Q02242 25-288) (receptor) |  |
